Reference: paper PMC8659279, “Identification of a Novel Delta Opioid Receptor Agonist Chemotype with Potential Negative Allosteric Modulator Capabilities” (Molecules, 2021)
Read-outs that look alike come from different tables or passages of the source.

Legend:
[1] = target: T1, δOR (Mus musculus, UniProt P32300); assay: GloSensor cAMP inhibition assay (forskolin-induced cAMP) in HEK 293 cells; assay type: cell-based
T1 construct: FLAG; expressed in transfected cells; host or cells: HEK 293

[2] = target: T2, κOR (Homo sapiens, UniProt P41145); parameters: method as in PMID 28339199; conditions: ref [36]; read-out: potency at the κOR; cited from earlier work
T2 sequence (P41145 whole entry): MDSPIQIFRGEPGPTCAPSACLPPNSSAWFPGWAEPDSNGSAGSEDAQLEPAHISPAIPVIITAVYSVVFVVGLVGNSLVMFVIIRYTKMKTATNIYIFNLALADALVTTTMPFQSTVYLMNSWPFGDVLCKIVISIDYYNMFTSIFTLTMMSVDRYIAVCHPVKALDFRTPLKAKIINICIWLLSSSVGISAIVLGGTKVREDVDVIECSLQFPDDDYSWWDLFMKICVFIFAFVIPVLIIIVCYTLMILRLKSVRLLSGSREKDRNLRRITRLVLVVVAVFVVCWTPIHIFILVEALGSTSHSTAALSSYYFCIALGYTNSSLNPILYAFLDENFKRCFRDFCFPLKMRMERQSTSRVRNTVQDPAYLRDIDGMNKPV

[3] = target: T2, κOR; parameters: method as in PMID 28339199; conditions: ref [36]; read-out: affinity at the κOR; cited from earlier work
[4] = cited from earlier work
[5] = target: T2, κOR; assay: Radioligand binding assay with [3H]U69,593; conditions: read-out: Affinity (pKi ± SEM) (converted)
[6] = target: T3, δOR (Homo sapiens, UniProt P41143); assay: PathHunter β-arrestin 1 recruitment, U2OS cells (also library screen); assay type: cell-based; conditions: read-out: β-ARR1 potency (pEC50) (converted)
T3 sequence (P41143 whole entry): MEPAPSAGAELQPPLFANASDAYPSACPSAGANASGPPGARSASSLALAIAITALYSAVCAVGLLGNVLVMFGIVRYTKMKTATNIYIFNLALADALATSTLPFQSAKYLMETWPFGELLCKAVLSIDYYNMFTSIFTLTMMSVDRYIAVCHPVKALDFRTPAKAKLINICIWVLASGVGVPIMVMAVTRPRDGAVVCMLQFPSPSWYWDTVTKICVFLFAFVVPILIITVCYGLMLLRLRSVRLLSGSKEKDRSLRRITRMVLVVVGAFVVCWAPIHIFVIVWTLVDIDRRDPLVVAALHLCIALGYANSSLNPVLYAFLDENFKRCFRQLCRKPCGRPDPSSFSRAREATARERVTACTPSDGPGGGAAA

[7] = target: T2, κOR; assay: GloSensor cAMP inhibition assay (forskolin-induced cAMP); assay type: cell-based; conditions: read-out: cAMP Potency (pIC50 ± SEM) (converted)
[8] = target: T3, δOR; assay: Radioligand binding assay with [3H]DPDPE
[9] = target: µOR (Mus musculus, UniProt P42866); assay: GloSensor cAMP inhibition assay (forskolin-induced cAMP) in HEK 293 cells; assay type: cell-based; conditions: read-out: cAMP Potency (pIC50 ± SEM) (converted)
Chain of µOR (Mus musculus, UniProt P42866) (P42866 whole entry): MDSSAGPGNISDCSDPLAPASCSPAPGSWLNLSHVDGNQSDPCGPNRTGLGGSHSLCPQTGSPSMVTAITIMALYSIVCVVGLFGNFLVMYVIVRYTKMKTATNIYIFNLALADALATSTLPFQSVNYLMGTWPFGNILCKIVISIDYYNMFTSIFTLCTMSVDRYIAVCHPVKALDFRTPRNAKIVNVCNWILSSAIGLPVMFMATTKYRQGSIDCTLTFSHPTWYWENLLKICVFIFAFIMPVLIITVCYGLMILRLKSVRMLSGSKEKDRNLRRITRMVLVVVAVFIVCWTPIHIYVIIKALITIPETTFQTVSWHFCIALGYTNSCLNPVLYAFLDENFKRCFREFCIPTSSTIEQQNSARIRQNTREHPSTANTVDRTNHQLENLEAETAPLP

[10] = target: T3, δOR; assay: PathHunter β-arrestin 2 recruitment, CHO-human δOR cells; assay type: cell-based; conditions: read-out: β-ARR2 potency (pEC50) (converted)
[11] = target: T4, µOR (Homo sapiens, UniProt P35372); assay: Radioligand binding assay with [3H]DAMGO; conditions: read-out: Affinity (pKi ± SEM) (converted)
T4 sequence (P35372 whole entry): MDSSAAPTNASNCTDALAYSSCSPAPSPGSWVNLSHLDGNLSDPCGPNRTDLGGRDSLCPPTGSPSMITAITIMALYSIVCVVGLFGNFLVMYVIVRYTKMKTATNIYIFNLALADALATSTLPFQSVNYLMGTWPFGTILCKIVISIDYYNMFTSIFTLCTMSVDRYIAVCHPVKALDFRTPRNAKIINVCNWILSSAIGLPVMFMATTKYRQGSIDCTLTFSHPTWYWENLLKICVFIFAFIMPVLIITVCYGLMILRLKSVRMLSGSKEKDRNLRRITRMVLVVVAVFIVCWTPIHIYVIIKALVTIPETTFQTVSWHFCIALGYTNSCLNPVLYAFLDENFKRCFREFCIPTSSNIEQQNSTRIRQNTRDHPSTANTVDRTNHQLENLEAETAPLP

[12] = target: T1, δOR; assay: Assessment of allosteric modulation of Leu-enkephalin in δOR glosensor cAMP assay; assay type: cell-based
[13] = target: T4, µOR; parameters: method as in PMID 27533032; conditions: ref [32]; read-out: affinity at the µOR; cited from earlier work
[14] = target: T3, δOR; parameters: method as in PMID 26507558, PMID 20850307, doi:10.1016/S0021-5198(19)49890-9; conditions: ref [14],[18],[19]; cited from earlier work
[15] = Table 2, three or more independent trials, read-out: pIC50 ± SEM to inhibit cAMP signaling at δOR (converted)

T1 sequence (P32300 whole entry): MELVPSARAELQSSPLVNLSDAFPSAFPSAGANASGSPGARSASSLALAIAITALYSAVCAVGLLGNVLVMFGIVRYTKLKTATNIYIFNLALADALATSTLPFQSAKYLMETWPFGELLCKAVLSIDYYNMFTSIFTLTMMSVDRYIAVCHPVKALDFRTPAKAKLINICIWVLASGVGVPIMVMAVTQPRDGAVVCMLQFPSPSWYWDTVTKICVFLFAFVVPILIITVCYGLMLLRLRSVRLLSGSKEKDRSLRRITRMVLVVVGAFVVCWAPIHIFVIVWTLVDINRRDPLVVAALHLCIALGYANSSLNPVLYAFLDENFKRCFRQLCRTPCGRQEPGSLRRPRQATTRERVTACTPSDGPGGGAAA

COc1cccc(/C=N/NC(=O)c2cc(-c3ccc(Br)s3)n[nH]2)c1O [Compound 14]
IC50 [1, 15]: 10 µM

CC(c1cccc(O)c1)N(C)CCc1nccn1C (stereo not drawn) [compound 81]
EC50 [2]: 0.53 µM
Ki [3]: 0.16 µM

Cc1cccc(/C=N/NC(=O)c2cc(-c3cccs3)n[nH]2)c1 [Compound 3]
IC50 [1, 15]: 7.94 µM

CCN(CC)C(=O)c1ccc([C@H](c2cccc(N)c2)N2C[C@@H](C)N(Cc3ccc(F)cc3)C[C@@H]2C)cc1 [AZD2327]
proconvulsant effects ([4]; ref [8]): proconvulsant effects

COc1cc(/C=N/NC(=O)c2cc(-c3ccc(C)s3)n[nH]2)ccc1O [Compound 15]
IC50 [1, 15]: 10 µM

CN(C)C(=O)c1ccc(C(=C2CCN(Cc3cncs3)CC2)c2cccc(C(N)=O)c2)cc1 [PN6047]
proconvulsant effects ([4]; ref [17]): not proconvulsant

CCOc1cccc(/C=N/NC(=O)c2cc(-c3ccc(Cl)s3)n[nH]2)c1O [Compound 10]
IC50 [1, 15]: 7.94 µM

COc1cc(/C=N/NC(=O)c2cc(-c3cccs3)n[nH]2)cc(OC)c1OC [Compound 8]
IC50 [1, 15]: 10 µM

O=C(N/N=C/c1ccccc1)c1cc(-c2cccs2)n[nH]1 [Compound 2]
IC50 [1, 15]: 12.6 µM

CCOc1cccc(/C=N/NC(=O)c2cc(-c3ccco3)n[nH]2)c1O [Compound 5]
IC50 [1, 15]: 10 µM

COc1cccc(C=NNC(=O)c2cc(-c3cccs3)n[nH]2)c1O [Compound 1, N’-(2-hydroxy-3-methoxybenzylidene)-3-(2-thienyl)-1H-pyrazole-5-carbohydrazide]
Ki [5]: > 10 µM
EC50 [6]: > 10 µM
IC50 [1, 15]: 1 µM
IC50 ([1]; δOR, read-out: cAMP Potency (pIC50 ± SEM) (converted)): 0.977 µM
IC50 [7]: > 10 µM
affinity and potency at δOR stronger than for µOR and κOR (selectivity) ([8]; δOR over µOR and κOR): roughly 10 fold
Ki ([8]; δOR, read-out: Affinity (pKi ± SEM) (converted)): 1.15 µM
IC50 [9]: > 10 µM
EC50 [10]: > 10 µM
Ki [11]: > 10 µM
modulation of Leu-enkephalin activity in cAMP glosensor assay ([12]; Leu-enkephalin co-incubated with 0.1-10 µM compound 1): negative allosteric modulator (NAM)-agonist
β (change in Leu-enkephalin Emax) ([12]; Leu-enkephalin co-incubated with increasing concentrations of compound 1): 1

O=C(N/N=C/c1ccc(Cl)cc1)c1cc(-c2cccs2)n[nH]1 [Compound 4]
IC50 [1, 15]: 12.6 µM

C[C@H](Cc1cccs1)NC(=O)NC[C@H](Cc1ccc(O)cc1)N(C)C [PZM21]
Ki [13]: 0.001 µM

O=C(N/N=C/c1ccc(O)c(O)c1)c1cc(-c2cccs2)n[nH]1 [Compound 6]
IC50 [1, 15]: 12.6 µM

CN1CCC2(c3cccc(O)c3)Cc3nc4ccccc4cc3CC2C1 (stereo not drawn) [TAN-67]
Emax for β-arrestin 2 recruitment [14]: 30%

COc1cccc(/C=N/NC(=O)c2cc(-c3cccs3)n[nH]2)c1 [Compound 9]
IC50 [1, 15]: 15.8 µM

COc1cccc(/C=N/NC(=O)c2cc(-c3ccc(Cl)s3)n[nH]2)c1O [Compound 13]
IC50 [1, 15]: 7.94 µM

COc1cccc(/C=N/NC(=O)c2cc(-c3ccco3)n[nH]2)c1O [Compound 12]
IC50 [1, 15]: 7.94 µM

COc1ccc(/C=N/NC(=O)c2cc(-c3ccc(C)s3)n[nH]2)cc1OC [Compound 11]
IC50 [1, 15]: 3.98 µM

CN1CCC23Cc4nc5ccccc5cc4CC2(O)C1Cc1ccc(O)cc13 (stereo not drawn) [KNT-127]
Emax for β-arrestin 2 recruitment [14]: 70%
convulsions ([4]; ref [14],[18],[19]): do not induce convulsions
